Test results published in ChEMBL document CHEMBL1201862, “PubChem BioAssay data set” (2004).
Activity calls are given as the source filed them.

What was measured:
Streptokinase A = target: T1, Streptokinase A (Streptococcus pyogenes serotype M1, UniProt P10520); experiment: viability-normalized secreted streptokinase activity reduction – plasminogen activation absorbance, OD405, dose response (AID 1914); type: functional, Streptococcus pyogenes M1 GAS;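 further: secreted streptokinase activity via plasminogen activation per viability signal from cell pellet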
T1 sequence (P10520 whole entry): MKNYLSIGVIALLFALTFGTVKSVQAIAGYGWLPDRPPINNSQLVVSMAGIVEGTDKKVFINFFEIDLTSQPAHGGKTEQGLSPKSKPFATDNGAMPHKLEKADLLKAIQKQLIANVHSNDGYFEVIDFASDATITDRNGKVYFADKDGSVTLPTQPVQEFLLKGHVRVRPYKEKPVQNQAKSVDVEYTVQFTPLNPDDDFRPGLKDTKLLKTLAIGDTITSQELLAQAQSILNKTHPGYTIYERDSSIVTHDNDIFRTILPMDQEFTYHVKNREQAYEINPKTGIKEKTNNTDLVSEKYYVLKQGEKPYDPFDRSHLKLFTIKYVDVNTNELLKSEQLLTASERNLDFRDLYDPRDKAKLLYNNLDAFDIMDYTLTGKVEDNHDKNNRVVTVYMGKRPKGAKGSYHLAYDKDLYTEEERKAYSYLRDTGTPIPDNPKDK

[1] = system: Streptococcus sp. 'group A'; experiment: Streptococcus pyogenes SK(-)GAS viability under kanamycin – luminescence, BacTiterGlo, confirmation, counter-screen for streptokinase expression inhibitor project, dose response (AID 1900); type: functional, organism-based
HEK293 [2] = experiment: cells; type: functional, cell-based; settings: Homo sapiens
HEK293 [3] = experiment: NOD2 signaling inhibitors in MDP-stimulated cells, cell-based, uHTS, luminescence (AID 2001); type: functional; settings: Homo sapiens
HEK293 [4] = experiment: inhibition of NOD1-driven NF-kB reporter – cell-based, luminescence, uHTS, primary screen (AID 1578); type: functional; settings: Homo sapiens
HEK293 [5] = experiment: cells; type: functional, cell-based; settings: Homo sapiens; remark: listed apart in the source
[6] = viability loss of HPDE-C7K cells – cell-based, fluorescence, HTS, primary screen (AID 431); type: functional; settings: Homo sapiens
Streptococcus = experiment: GAS UMAA2166 growth inhibition – luminescence, BacTiterGlo, counter-screen for streptokinase expression inhibitor project, dose response (AID 1915); type: functional, organism-based;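 further: potency for reduction of bacterial viability or growth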
[7] = HPDE-C7 pancreatic duct cell viability loss – fluorescence, HTS (AID 430); type: functional, cell-based; settings: Homo sapiens
Protein RecA = target: T2, Protein RecA (Mycobacterium tuberculosis, UniProt P9WHJ3); experiment: Fluorescence Cell-Free Homogeneous Dose Retest to Identify Inhibitors of RecA-Intein Splicing Activity. [Related pubchem assays (depositor defined):AID2097, AID2223, AID489010, AID492950]; type: functional
T2 sequence (P9WHJ3 whole entry): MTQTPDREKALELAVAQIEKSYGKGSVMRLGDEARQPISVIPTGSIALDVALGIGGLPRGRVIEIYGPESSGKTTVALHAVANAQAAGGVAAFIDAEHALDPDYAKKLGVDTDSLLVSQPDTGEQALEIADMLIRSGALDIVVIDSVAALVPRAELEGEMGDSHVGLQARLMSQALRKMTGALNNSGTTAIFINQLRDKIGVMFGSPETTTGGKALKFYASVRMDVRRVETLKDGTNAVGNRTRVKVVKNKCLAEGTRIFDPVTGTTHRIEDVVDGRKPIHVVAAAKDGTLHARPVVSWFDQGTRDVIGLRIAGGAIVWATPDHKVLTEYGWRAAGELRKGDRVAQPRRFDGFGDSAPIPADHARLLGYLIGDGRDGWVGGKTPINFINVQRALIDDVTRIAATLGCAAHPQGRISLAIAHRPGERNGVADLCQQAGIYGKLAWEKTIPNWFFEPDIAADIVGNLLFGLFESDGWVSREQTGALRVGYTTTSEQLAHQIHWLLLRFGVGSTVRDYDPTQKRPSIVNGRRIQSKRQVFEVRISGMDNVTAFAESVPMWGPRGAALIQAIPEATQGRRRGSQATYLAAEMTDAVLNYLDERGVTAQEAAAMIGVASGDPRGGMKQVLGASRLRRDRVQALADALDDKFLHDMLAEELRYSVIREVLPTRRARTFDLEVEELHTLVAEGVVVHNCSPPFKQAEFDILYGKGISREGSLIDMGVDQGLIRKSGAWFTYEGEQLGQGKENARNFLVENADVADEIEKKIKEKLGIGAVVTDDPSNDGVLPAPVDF

[8] = Counterscreen for activators of the function of SWI/SNF related, matrix associated, actin dependent regulator of chromatin, subfamily a, member 2 (SMARCA2, BRM): Luminescence-based cell-based high throughput dose response assay to identify non-selective compounds using the VP16 reporter assay.; type: functional
[9] = target: T3, Replicative DNA helicase DnaB (Mycobacterium tuberculosis, UniProt P9WMR3); experiment: DnaB intein splicing inhibitors, dose response, biochemical, cell-free fluorescence (AID 449749); type: functional
T3 sequence (P9WMR3 whole entry): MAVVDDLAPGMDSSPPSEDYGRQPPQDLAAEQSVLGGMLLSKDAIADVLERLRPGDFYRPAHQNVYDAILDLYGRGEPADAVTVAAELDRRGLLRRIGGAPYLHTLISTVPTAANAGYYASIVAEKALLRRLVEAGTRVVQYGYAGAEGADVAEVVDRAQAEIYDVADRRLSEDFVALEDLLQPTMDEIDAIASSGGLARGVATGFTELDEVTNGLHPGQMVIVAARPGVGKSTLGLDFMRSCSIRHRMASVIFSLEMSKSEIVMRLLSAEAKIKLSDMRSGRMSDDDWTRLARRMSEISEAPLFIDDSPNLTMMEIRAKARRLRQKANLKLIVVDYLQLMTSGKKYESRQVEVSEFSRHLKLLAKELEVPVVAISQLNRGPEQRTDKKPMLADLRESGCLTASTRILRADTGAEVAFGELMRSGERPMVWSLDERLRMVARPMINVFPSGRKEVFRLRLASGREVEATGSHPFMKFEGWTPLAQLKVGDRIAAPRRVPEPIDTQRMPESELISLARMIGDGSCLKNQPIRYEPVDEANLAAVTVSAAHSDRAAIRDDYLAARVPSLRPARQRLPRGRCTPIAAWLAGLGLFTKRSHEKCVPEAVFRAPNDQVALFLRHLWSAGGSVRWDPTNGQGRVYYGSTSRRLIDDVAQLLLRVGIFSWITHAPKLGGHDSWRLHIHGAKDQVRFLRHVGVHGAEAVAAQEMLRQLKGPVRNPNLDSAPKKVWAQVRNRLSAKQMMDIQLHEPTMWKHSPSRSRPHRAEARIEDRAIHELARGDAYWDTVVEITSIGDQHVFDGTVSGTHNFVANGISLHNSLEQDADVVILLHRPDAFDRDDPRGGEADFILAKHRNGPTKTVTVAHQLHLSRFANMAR

[10] = target: SWI/SNF-related matrix-associated actin-dependent regulator of chromatin subfamily A member 2 (Homo sapiens, UniProt P51531); experiment: Luminescence-based cell-based high throughput dose response assay to identify activators of the function of SWI/SNF related, matrix associated, actin dependent regulator of chromatin, subfamily a, member 2 (SMARCA2, BRM).; type: functional
SWI/SNF-related matrix-associated actin-dependent regulator of chromatin subfamily A member 2, sequence (P51531 whole entry): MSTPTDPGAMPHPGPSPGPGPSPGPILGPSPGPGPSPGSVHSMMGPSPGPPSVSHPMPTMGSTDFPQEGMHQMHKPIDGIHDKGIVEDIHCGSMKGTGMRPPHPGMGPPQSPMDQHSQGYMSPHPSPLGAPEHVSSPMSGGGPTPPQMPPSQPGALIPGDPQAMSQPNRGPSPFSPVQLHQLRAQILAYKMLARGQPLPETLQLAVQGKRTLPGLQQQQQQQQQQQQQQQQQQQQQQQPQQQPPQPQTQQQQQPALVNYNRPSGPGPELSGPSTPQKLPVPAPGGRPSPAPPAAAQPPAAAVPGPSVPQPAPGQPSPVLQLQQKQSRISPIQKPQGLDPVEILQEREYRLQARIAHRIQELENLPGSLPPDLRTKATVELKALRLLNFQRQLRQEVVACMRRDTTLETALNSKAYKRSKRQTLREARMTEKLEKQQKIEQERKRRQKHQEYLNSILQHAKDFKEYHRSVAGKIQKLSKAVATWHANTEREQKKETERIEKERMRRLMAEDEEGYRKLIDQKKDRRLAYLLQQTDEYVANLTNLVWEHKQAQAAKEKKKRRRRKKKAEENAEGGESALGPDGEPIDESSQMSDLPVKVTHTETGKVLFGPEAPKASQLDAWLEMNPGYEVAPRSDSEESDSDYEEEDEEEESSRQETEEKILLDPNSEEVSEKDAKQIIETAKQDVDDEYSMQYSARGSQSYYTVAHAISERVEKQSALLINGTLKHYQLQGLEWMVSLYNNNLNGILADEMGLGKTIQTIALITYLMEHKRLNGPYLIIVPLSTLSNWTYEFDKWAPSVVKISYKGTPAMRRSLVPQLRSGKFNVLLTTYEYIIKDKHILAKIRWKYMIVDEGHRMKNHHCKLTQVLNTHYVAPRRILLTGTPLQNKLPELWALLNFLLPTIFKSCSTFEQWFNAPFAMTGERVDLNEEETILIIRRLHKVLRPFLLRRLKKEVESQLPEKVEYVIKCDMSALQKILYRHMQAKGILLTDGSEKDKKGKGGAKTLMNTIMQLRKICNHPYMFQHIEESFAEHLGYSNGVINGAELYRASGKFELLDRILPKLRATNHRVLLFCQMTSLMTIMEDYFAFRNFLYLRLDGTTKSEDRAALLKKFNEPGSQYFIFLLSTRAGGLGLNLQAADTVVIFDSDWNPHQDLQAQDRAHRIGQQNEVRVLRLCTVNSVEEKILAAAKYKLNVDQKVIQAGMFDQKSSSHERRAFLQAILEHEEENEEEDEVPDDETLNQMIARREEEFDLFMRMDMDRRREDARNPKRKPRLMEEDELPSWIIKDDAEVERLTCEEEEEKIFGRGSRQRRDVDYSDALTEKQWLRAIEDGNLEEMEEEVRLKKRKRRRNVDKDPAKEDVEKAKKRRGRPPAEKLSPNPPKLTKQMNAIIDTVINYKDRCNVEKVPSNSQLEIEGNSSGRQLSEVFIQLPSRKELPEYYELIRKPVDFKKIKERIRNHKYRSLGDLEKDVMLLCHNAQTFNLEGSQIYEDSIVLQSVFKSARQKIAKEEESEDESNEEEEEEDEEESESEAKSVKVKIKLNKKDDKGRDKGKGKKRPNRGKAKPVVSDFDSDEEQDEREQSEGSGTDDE

[11] = blockers of bursicon-stimulated LGR2 cAMP reporter – cell-based, HEK293, CRE-luciferase reporter, cherry pick, set 2, dose response (AID 743343); type: functional;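 further: transfected cells were stimulated with diluted bursicon conditioned medium after compound addition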
[12] = blockade of melanocortin 4 receptor signaling – cell-based, plate reader, cherry pick, counter-screen for LGR2 antagonist project, dose response (AID 743444); type: functional;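 further: transfected HEK 293 cells stimulated with alpha-MSH peptide; potency of inhibitors of the alpha-MSH evoked signal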
HEK293 [13] = experiment: EBV LMP1 TES2 canonical NF-kB signalling blockers – cell-based, HEK293, luciferase, cherry-pick, dose response (AID 588343); type: functional; settings: Homo sapiens
[14] = target: G-protein coupled receptor 55 (Homo sapiens, UniProt Q9Y2T6); experiment: inhibition of LPI-stimulated GPR55 beta-arrestin translocation – imaging, U2OS, beta-arrestin-GFP, LPI agonist, primary screen (AID 2013); type: functional;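 further: antagonist potency measured as reduced agonist-driven arrestin aggregation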
G-protein coupled receptor 55, sequence (Q9Y2T6 whole entry, the tested form may be a part): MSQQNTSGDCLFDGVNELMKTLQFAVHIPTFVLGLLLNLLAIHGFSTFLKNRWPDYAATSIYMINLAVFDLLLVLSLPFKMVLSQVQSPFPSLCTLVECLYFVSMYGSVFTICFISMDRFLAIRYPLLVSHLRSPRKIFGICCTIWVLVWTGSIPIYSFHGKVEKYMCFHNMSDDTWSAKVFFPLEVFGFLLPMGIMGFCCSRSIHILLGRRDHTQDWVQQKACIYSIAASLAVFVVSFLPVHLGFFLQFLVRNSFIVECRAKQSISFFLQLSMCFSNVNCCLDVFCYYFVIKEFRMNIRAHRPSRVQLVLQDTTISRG

[15] = off-target signal loss in HeLa-CEM21 co-culture – HeLa F-luc CTL cells, cherry-picked, counter-screen for HIV-1 Env fusion inhibitor project, dose response (AID 652040); type: functional, cell-based;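 further: potency for signal decrease marking cytotoxic or nonspecific inhibition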
[16] = blockers of HIV-1 envelope-mediated cell-cell fusion – cherry-pick, dose response (AID 652057); type: functional, cell-based
[17] = HIV-1 AD8 envelope cell-cell fusion blockers – cherry-pick, dose response (AID 652062); type: functional, cell-based;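 further: luciferase signal from cell-cell fusion driven by HIV-1 clade B AD8 Env; potency is for inhibitors of fusion seen as a drop in luminescence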
[18] = viability loss in CEM21 cells – cell-based, CellTiter-Glo luminescence, cherry-picked, cytotoxicity control for viral fusion inhibitor project, dose response (AID 652042); type: functional;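 further: potency for signal decrease meaning cytotoxicity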
[19] = target: T4, Oxysterols receptor LXR-beta (Homo sapiens, UniProt P55055); type: functional, cell-based;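 further: agonist activity at LXR measured by a cell-based luminescence readout across a dose range, run as a counterscreen for daf-12 agonists; HEK293 cells with Gal4-LXR fusion and GAL4-driven luciferase reporter; potency for activation of Gal4-LXR reporter so compounds are agonists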
T4 sequence (P55055 whole entry): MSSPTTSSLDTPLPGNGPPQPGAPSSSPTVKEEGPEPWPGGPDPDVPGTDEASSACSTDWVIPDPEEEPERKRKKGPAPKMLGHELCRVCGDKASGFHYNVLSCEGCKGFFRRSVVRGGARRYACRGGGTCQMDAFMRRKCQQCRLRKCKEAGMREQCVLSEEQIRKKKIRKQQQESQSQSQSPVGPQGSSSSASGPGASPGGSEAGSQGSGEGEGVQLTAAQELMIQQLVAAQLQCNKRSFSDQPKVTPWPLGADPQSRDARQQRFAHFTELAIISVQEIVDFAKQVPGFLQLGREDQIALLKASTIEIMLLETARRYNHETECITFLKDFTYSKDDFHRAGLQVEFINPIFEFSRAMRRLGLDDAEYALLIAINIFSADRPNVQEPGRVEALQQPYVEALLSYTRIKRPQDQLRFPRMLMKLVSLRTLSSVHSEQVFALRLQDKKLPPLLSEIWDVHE

[20] = viability of uninfected HEp-2 cells – cell-based, HTS, cytotoxicity control for RSV inhibitor project, dose response (AID 2410); type: functional; settings: human respiratory syncytial virus

Question: With Cc1conc1NC(c1cccs1)c1ccc2cccnc2c1O (stereo unspecified) as the compound, how does the EC50 (Streptokinase A) read?
Answer: > 150 µM (not active)

Question: What about the EC50 [1] of the same compound?
Answer: 1.93 µM (active)

Question: What about the IC50 (HEK293 [2]) of the same compound?
Answer: > 20 µM (inactive)

Question: And the IC50 (HEK293 [3])?
Answer: 6.1 µM (active)

Question: What about the EC50 (HEK293 [4]) of the same compound?
Answer: > 20 µM (inactive)

Question: What about the IC50 (HEK293 [5]) of the same compound?
Answer: 4.74 µM (active)

Question: And the EC50 [6]?
Answer: 5.68 µM (active)

Question: And the EC50 (Streptococcus)?
Answer: 7.33 µM (active)

Question: What about the EC50 [7] of the same compound?
Answer: 10.2 µM (active)

Question: Which EC50 (Protein RecA) does the source give for Cc1cc(C)n2nc(CNS(=O)(=O)c3c(F)c(F)c(F)c(F)c3F)nc2n1 here?
Answer: 10.8 µM (active)

Question: And the EC50 [8]?
Answer: > 91.2 µM (inactive)

Question: And the AC50 [9]?
Answer: 38.5 µM (active)

Question: What about the EC50 [10] of the same compound?
Answer: > 91.2 µM (inactive)

Question: Which results are given for O=C(CN1C(=O)c2ccccc2S1(=O)=O)c1ccccc1F?
Answer: AC50 [11]: 2.28 µM (active); AC50 [12]: 4.05 µM (active); AC50 (HEK293 [13]): 3.69 µM (active)

Question: Which IC50 [14] does the source give for O=C(NC(=S)NC1CCN(Cc2ccccc2)CC1)c1ccc(F)cc1 here?
Answer: 4.67 µM (active)

Question: Which results are given for Cc1ccc(COC(=O)c2cc(S(=O)(=O)N3CCCCC3)ccc2N2CCOCC2)cc1?
Answer: AC50 [15]: > 70 µM (inactive); AC50 [16]: 19.8 µM (active); AC50 [17]: 10.6 µM (active); AC50 [18]: 68.1 µM (active)

Question: With CCN(CC)S(=O)(=O)c1cc(C(=O)OCC(=O)Nc2ccc(-c3nc4ccc(C)cc4s3)cc2)ccc1F as the compound, how does the EC50 [19] read?
Answer: > 67.5 µM (inactive)

Question: And the CC50 [20]?
Answer: 11.4 µM (active)

Question: And the AC50 [11]?
Answer: 3.17 µM (active)

Question: What about the AC50 [12] of the same compound?
Answer: 3.11 µM (active)

Question: For CCCSc1ncc(Cl)c(C(=O)Nc2ccc(S(=O)(=O)N3CC(C)OC(C)C3)cc2)n1 (stereo unspecified), which IC50 [14] is on record?
Answer: 5.75 µM (active)
